This note sets out measurements from US11214803B2, “Modulators of YAP1 expression” (Ionis Pharmaceuticals, Inc., priority 2019, dated 2022).

In the data set the test system is Yap1 mRNA. Description: Dose-dependent inhibition of human Yap1 in SNU-449 cells (Example 9, RTS36584). Format: cell-based. The settings on record: free uptake; for % UTC (Yap1 mRNA): approximately 48 hours; for IC50: linear regression on a log/linear plot. In short, it runs like this:
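SNU-449 cells (10,000/well) took up modified oligonucleotides by free uptake at a range of doses for about 48 h. Yap1 mRNA was quantified with primer-probe set RTS36584, normalised to RIBOGREEN total RNA and expressed as % untreated control; IC50 from linear regression on log/linear plot.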

Strand notation (5' to 3'): a small letter for the sugar, then the base; units joined by * are phosphorothioate-linked, units joined directly phosphodiester-linked; [ ] holds rarer units or linkages, { } end groups; capitals alone tell only the bases. e = 2'-O-(2-methoxyethyl) (MOE); k = constrained ethyl (cEt); [5mC] = 5-methylcytosine; d = 2'-deoxy (DNA); m = 2'-O-methyl

As a reminder, the IC50 is the point on the concentration scale where inhibition reaches its midpoint. The low end stands for higher potency, the high end for lower potency.

As for “1198960 (kA*kA*dG*dT*dG*dT*dA*dT*dG*dT*d[5mC]*kA*dG*kA*dA*kG; antisense) [compound 1198960]”, the IC50 came out at 0.1 µM. For the same substance, the “% UTC (Yap1 mRNA)” value (31.3 nM) is given as 77 % UTC. Moreover, under “125.0 nM”, the “% UTC (Yap1 mRNA)” value is listed as 35 % UTC. Further, the “% UTC (Yap1 mRNA)” value (500.0 nM) came to 8 % UTC. Besides, under “2000.00 nM”, the “% UTC (Yap1 mRNA)” value turned out to be 2 % UTC.

“1198935 (kG*kA*dT*dT*dT*dA*dG*dG*dA*dT*dG*k[5mC]*dA*kT*dG*kG; antisense) [compound 1198935]” returned an IC50 of 0.04 µM. Moreover, the “% UTC (Yap1 mRNA)” value (31.3 nM) is recorded as 50 % UTC. In addition, for the setting “125.0 nM”, the “% UTC (Yap1 mRNA)” value is 46 % UTC. For the setting “500.0 nM”, the “% UTC (Yap1 mRNA)” value is 23 % UTC. In addition, the “% UTC (Yap1 mRNA)” value (2000.00 nM) is reported as 11 % UTC.

In turn, “1198466 (kA*kG*dA*dG*dT*dA*dT*dG*dT*dG*dG*e[5mC]*kA*eA*kT*eA; antisense) [compound 1198466]” registered an IC50 of 0.1 µM. Besides, the “% UTC (Yap1 mRNA)” value (31.3 nM) is given as 68 % UTC. Further, the “% UTC (Yap1 mRNA)” value (125.0 nM) came out at 44 % UTC. Besides, under “500.0 nM”, the “% UTC (Yap1 mRNA)” value came out at 18 % UTC. Also, the “% UTC (Yap1 mRNA)” value (2000.00 nM) amounted to 6 % UTC.

“1197229 (kG*kG*kA*dA*mA*dT*dT*dG*dT*d[5mC]*dT*d[5mC]*dA*kT*kG*k[5mC]; antisense) [compound 1197229]”: the IC50 came out at 0.03 µM. The “% UTC (Yap1 mRNA)” value (31.3 nM) is listed as 54 % UTC. The “% UTC (Yap1 mRNA)” value (125.0 nM) is on record as 32 % UTC. For the same substance, for the setting “500.0 nM”, the “% UTC (Yap1 mRNA)” value is 16 % UTC. For the same substance, under “2000.00 nM”, the “% UTC (Yap1 mRNA)” value turned out to be 7 % UTC.

Substance “1095481 (kT*kG*dA*dG*dG*dT*dA*dT*dA*dA*d[5mC]*dT*kG*eG*kG*e[5mC]) [compound 1095481]” gave an IC50 of 0.1 µM. For the same substance, under “31.3 nM”, the “% UTC (Yap1 mRNA)” value is 73 % UTC. Besides, the “% UTC (Yap1 mRNA)” value (125.0 nM) stood at 47 % UTC. Moreover, under “500.0 nM”, the “% UTC (Yap1 mRNA)” value is 16 % UTC. The “% UTC (Yap1 mRNA)” value (2000.00 nM) is listed as 8 % UTC.

“1198507 (kT*kT*dA*dT*dA*dT*dG*dG*dT*dT*dT*eT*kG*eT*kG*eT; antisense) [compound 1198507]” gave an IC50 of 0.2 µM. In addition, the “% UTC (Yap1 mRNA)” value (31.3 nM) turned out to be 83 % UTC. For the setting “125.0 nM”, the “% UTC (Yap1 mRNA)” value is reported as 57 % UTC. For the same substance, where the note is “500.0 nM”, the “% UTC (Yap1 mRNA)” value is listed as 29 % UTC. In addition, the “% UTC (Yap1 mRNA)” value (2000.00 nM) amounted to 13 % UTC.

Turning to “1198902 (kT*kT*dA*dG*dA*dG*dT*dA*dT*dG*dT*kG*dG*k[5mC]*dA*kA; antisense) [compound 1198902]”, 0.1 µM corresponded to half-maximal inhibition (IC50). Moreover, the “% UTC (Yap1 mRNA)” value (31.3 nM) is on record as 74 % UTC. Further, the “% UTC (Yap1 mRNA)” value (125.0 nM) stood at 46 % UTC. Further, the “% UTC (Yap1 mRNA)” value (500.0 nM) stood at 22 % UTC. Moreover, the “% UTC (Yap1 mRNA)” value (2000.00 nM) was found to be 10 % UTC.

“1197217 (kT*kT*kA*dA*dA*dG*dT*dG*dT*dA*dT*dG*dT*k[5mC]*kA*kG) [compound 1197217]”: the midpoint of inhibition, the IC50, lay at 0.1 µM. In addition, the “% UTC (Yap1 mRNA)” value (31.3 nM) amounted to 66 % UTC. Under “125.0 nM”, the “% UTC (Yap1 mRNA)” value is reported as 39 % UTC. The “% UTC (Yap1 mRNA)” value (500.0 nM) is 14 % UTC. Also, the “% UTC (Yap1 mRNA)” value (2000.00 nM) is 4 % UTC.

In turn, “1198613 (kA*kA*kA*dG*dT*dG*dT*dA*dT*dG*dT*d[5mC]*kA*kG*kA*eA; antisense) [compound 1198613]” gave an IC50 of 0.1 µM. Also, the “% UTC (Yap1 mRNA)” value (31.3 nM) was 80 % UTC. In addition, the “% UTC (Yap1 mRNA)” value (125.0 nM) was found to be 25 % UTC. Moreover, the “% UTC (Yap1 mRNA)” value (500.0 nM) is listed as 7 % UTC. Also, the “% UTC (Yap1 mRNA)” value (2000.00 nM) turned out to be 2 % UTC.

Regarding “1198527 (kA*kA*dA*dG*dT*dG*dT*dA*dT*dG*dT*e[5mC]*kA*eG*kA*eA; antisense) [compound 1198527]”, inhibition was half-maximal at 0.1 µM (IC50). Besides, the “% UTC (Yap1 mRNA)” value (31.3 nM) turned out to be 63 % UTC. The “% UTC (Yap1 mRNA)” value (125.0 nM) stood at 35 % UTC. Also, the “% UTC (Yap1 mRNA)” value (500.0 nM) is reported as 12 % UTC. Where the note is “2000.00 nM”, the “% UTC (Yap1 mRNA)” value stood at 3 % UTC.

The substance “1198856 (k[5mC]*kT*dT*dA*dT*dA*dT*dG*dG*dT*dT*kT*eT*kG*eT*kG; antisense) [compound 1198856]” gave an IC50 of 0.1 µM. Moreover, the “% UTC (Yap1 mRNA)” value (31.3 nM) amounted to 72 % UTC. Further, the “% UTC (Yap1 mRNA)” value (125.0 nM) is given as 55 % UTC. In addition, the “% UTC (Yap1 mRNA)” value (500.0 nM) is given as 24 % UTC. The “% UTC (Yap1 mRNA)” value (2000.00 nM) was determined as 7 % UTC.

As to “1200789 (G_{ks}G_{ks}A_{ks}A_{ds}A_{ds}U_{ys}T_{ds}G_{ds}T_{ds}^{m}C_{ds}T_{ds}^{m}C_{ds}A_{ds}T_{ks}G_{ks}^{m}C_{k}; as printed in the source, key not given here) [compound 1200789]”, the IC50 is 0.05 µM. The “% UTC (Yap1 mRNA)” value (31.3 nM) is reported as 60 % UTC. Besides, the “% UTC (Yap1 mRNA)” value (125.0 nM) stood at 32 % UTC. For the same substance, the “% UTC (Yap1 mRNA)” value (500.0 nM) was 15 % UTC. Further, under “2000.00 nM”, the “% UTC (Yap1 mRNA)” value was determined as 5 % UTC.

“1198500 (kA*kT*dT*dT*dA*dG*dG*dA*dT*dG*d[5mC]*eA*kT*eG*kG*eT; antisense) [compound 1198500]” showed an IC50 of 0.2 µM. Where the note is “31.3 nM”, the “% UTC (Yap1 mRNA)” value turned out to be 72 % UTC. Also, the “% UTC (Yap1 mRNA)” value (125.0 nM) is 51 % UTC. Also, the “% UTC (Yap1 mRNA)” value (500.0 nM) is reported as 34 % UTC. In addition, the “% UTC (Yap1 mRNA)” value (2000.00 nM) is reported as 15 % UTC.

As to “1200788 (kG*kA*kA*dA*dT*mU*dG*dT*d[5mC]*dT*d[5mC]*dA*dT*kG*k[5mC]*k[5mC]) [compound 1200788]”, the IC50 turned out to be 0.1 µM. In addition, the “% UTC (Yap1 mRNA)” value (31.3 nM) came out at 61 % UTC. In addition, the “% UTC (Yap1 mRNA)” value (125.0 nM) is 38 % UTC. Also, the “% UTC (Yap1 mRNA)” value (500.0 nM) was 19 % UTC. Besides, the “% UTC (Yap1 mRNA)” value (2000.00 nM) is on record as 9 % UTC.

The substance “1009326 (kT*kA*kT*dT*dA*dG*dA*dG*dT*dA*dT*dG*dT*kG*kG*k[5mC]; antisense) [compound 1009326]” registered an IC50 of 0.05 µM. Also, where the note is “31.3 nM”, the “% UTC (Yap1 mRNA)” value turned out to be 59 % UTC. Moreover, under “125.0 nM”, the “% UTC (Yap1 mRNA)” value is listed as 35 % UTC. The “% UTC (Yap1 mRNA)” value (500.0 nM) amounted to 14 % UTC. For the setting “2000.00 nM”, the “% UTC (Yap1 mRNA)” value turned out to be 4 % UTC.

The substance “1197271 (kT*kT*kT*dA*mA*dA*dG*dT*dG*dT*dA*dT*dG*kT*k[5mC]*kA; antisense) [compound 1197271]” displayed an IC50 of 0.1 µM. Also, the “% UTC (Yap1 mRNA)” value (31.3 nM) came out at 70 % UTC. Besides, for the setting “125.0 nM”, the “% UTC (Yap1 mRNA)” value stood at 47 % UTC. Further, for the setting “500.0 nM”, the “% UTC (Yap1 mRNA)” value was found to be 19 % UTC. In addition, the “% UTC (Yap1 mRNA)” value (2000.00 nM) is on record as 8 % UTC.

On to “1198412 (kT*dT*dA*dG*dG*dA*dT*dG*d[5mC]*dA*dT*kG*eG*kT*eT*kT; antisense) [compound 1198412]”, for which half-maximal inhibition (IC50) required 0.2 µM. The “% UTC (Yap1 mRNA)” value (31.3 nM) amounted to 73 % UTC. For the same substance, the “% UTC (Yap1 mRNA)” value (125.0 nM) came out at 54 % UTC. Further, the “% UTC (Yap1 mRNA)” value (500.0 nM) amounted to 33 % UTC. For the same substance, the “% UTC (Yap1 mRNA)” value (2000.00 nM) is recorded as 15 % UTC.

“1197179 (kT*kG*kG*dA*dA*dA*dT*dT*dG*dT*d[5mC]*dT*d[5mC]*kA*kT*kG; antisense) [compound 1197179]” registered an IC50 of 0.1 µM. The “% UTC (Yap1 mRNA)” value (31.3 nM) worked out at 58 % UTC. Moreover, where the note is “125.0 nM”, the “% UTC (Yap1 mRNA)” value came out at 38 % UTC. Besides, the “% UTC (Yap1 mRNA)” value (500.0 nM) came out at 17 % UTC. Also, the “% UTC (Yap1 mRNA)” value (2000.00 nM) worked out at 7 % UTC.

In turn, “1198504 (kT*k[5mC]*dA*dG*dA*dT*dT*dT*dA*dG*dG*eA*kT*eG*k[5mC]*eA; antisense) [compound 1198504]” came in with an IC50 of 0.1 µM. In addition, where the note is “31.3 nM”, the “% UTC (Yap1 mRNA)” value is given as 77 % UTC. The “% UTC (Yap1 mRNA)” value (125.0 nM) is listed as 46 % UTC. The “% UTC (Yap1 mRNA)” value (500.0 nM) is on record as 27 % UTC. The “% UTC (Yap1 mRNA)” value (2000.00 nM) turned out to be 24 % UTC.
